Molecules are shown by their SMILES.

The target of the experiment is Histone-lysine N-methyltransferase, H3 lysine-79 specific (Homo sapiens, UniProt Q8TEK3). As to the kind of experiment: Inhibition of recombinant human N-terminal GST-tagged DOT1L (2 to 416 residues) expressed in Escherichia coli assessed as reduction in histone H3 lysine-N-methyltransferase activity using nucleosomes after 3 hrs in presence of SAM by AlphLisa assay.
Chain of Histone-lysine N-methyltransferase, H3 lysine-79 specific (Q8TEK3 whole entry, the tested form may be a part): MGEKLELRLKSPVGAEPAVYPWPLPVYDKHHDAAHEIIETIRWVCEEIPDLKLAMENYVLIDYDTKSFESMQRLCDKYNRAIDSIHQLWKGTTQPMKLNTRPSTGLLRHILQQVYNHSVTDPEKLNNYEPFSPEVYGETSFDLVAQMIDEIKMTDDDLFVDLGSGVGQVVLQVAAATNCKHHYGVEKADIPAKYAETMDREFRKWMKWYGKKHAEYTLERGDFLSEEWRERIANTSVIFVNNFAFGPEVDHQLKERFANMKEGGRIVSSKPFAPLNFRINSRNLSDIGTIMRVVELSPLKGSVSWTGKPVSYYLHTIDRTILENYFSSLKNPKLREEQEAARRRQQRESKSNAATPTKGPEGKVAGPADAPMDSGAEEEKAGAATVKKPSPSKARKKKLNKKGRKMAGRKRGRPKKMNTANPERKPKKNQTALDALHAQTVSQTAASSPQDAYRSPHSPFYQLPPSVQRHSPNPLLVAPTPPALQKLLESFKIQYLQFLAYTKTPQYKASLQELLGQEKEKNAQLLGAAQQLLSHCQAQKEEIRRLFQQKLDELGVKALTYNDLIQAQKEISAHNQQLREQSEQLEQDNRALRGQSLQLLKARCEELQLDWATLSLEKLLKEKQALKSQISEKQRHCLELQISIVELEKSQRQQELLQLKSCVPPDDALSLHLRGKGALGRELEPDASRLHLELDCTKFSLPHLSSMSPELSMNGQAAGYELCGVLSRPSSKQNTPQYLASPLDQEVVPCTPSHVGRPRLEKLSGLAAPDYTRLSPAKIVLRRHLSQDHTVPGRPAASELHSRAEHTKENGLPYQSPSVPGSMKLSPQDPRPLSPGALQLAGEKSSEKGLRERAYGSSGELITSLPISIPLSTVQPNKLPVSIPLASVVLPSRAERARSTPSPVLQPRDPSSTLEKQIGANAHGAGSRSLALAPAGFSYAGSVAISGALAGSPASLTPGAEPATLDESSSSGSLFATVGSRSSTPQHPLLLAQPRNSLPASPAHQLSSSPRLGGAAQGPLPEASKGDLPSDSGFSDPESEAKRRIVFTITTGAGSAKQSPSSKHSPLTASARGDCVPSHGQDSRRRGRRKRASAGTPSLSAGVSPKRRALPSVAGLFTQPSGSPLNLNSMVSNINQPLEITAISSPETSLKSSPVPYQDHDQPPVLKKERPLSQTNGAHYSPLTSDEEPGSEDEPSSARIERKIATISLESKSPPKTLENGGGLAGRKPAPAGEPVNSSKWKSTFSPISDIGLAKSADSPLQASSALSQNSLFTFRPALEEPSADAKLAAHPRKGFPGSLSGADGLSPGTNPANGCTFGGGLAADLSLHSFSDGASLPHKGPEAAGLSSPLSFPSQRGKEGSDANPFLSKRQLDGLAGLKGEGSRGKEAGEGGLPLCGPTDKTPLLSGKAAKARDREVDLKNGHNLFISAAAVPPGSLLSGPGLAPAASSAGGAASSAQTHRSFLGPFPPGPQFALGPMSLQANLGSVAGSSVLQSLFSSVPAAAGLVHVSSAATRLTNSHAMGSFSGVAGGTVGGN
By IC50 is commonly meant the midpoint of a concentration-inhibition curve. In the case of `CC(C)N(CCCNC(=O)Nc1ccc(C(C)(C)C)cc1)[C@@H](C)[C@H]1O[C@@H](n2cnc3c(N)ncnc32)[C@H](O)[C@@H]1O`, the IC50 came to 6.34 nM. Regarding `C[C@@H]([C@H]1O[C@@H](n2cnc3c(N)ncnc32)[C@H](O)[C@@H]1O)N(C1CCC1)C1CC(CCc2nc3cc(C(C)(C)C)ccc3[nH]2)C1` (some centres undefined), the IC50 came out at 1430 nM.

Turning to `C[C@H](NC1CC(CCc2nc3cc(C(C)(C)C)ccc3[nH]2)C1)[C@H]1O[C@@H](n2cnc3c(N)ncnc32)[C@H](O)[C@@H]1O` (some centres undefined), the IC50 is 690 nM.

Consider `C[C@@H]([C@H]1O[C@@H](n2cnc3c(N)ncnc32)[C@H](O)[C@@H]1O)N(C1CC(CCc2nc3cc(C(C)(C)C)ccc3[nH]2)C1)C1CC(CCc2nc3cc(C(C)(C)C)ccc3[nH]2)C1` (some centres undefined), for which the IC50 is 2160 nM.
